Legend:
[1] = biological target: T1, DNA polymerase delta catalytic subunit (Homo sapiens, UniProt P28340); assay: Inhibition of human delta DNA polymerase (95 uL) activity in a solution containg […] HEPES (pH 7.5) upon incubation for 12 minutes at 26 degrees C with the compound dissolved in DMSO
T1 sequence (P28340 whole entry): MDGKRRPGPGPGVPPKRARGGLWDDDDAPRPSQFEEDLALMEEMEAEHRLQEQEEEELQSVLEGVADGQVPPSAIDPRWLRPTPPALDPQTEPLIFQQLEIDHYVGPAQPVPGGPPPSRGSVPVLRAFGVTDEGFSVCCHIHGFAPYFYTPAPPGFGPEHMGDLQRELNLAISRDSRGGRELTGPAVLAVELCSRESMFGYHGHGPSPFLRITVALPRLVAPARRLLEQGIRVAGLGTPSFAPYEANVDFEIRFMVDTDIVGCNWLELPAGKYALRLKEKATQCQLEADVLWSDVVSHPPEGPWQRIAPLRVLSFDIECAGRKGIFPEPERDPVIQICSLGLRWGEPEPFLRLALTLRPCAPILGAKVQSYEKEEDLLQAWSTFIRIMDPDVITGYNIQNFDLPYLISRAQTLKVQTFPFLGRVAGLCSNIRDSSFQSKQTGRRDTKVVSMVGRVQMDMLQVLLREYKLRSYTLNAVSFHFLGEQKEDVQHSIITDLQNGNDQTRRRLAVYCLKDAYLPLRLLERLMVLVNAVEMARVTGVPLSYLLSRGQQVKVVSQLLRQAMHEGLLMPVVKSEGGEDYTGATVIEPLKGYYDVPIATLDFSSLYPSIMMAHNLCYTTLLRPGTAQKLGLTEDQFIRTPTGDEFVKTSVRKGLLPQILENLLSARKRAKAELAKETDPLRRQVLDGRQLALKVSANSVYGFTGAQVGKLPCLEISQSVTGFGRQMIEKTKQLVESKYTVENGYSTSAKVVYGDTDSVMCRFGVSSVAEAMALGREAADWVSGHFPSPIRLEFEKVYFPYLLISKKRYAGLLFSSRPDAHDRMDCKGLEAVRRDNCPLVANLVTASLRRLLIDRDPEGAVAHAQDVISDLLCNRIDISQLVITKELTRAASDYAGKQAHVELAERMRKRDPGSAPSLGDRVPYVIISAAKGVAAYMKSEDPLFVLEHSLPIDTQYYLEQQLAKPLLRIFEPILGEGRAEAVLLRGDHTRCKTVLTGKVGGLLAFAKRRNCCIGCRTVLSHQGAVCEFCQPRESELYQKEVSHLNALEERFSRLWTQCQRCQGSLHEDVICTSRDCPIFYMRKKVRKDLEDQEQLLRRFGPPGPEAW

[2] = biological target: T2, DNA polymerase alpha catalytic subunit (Homo sapiens, UniProt P09884); assay: Inhibition of human alpha DNA polymerase (95 uL) activity in a solution containg […] HEPES (pH 7.5) upon incubation for 12 minutes at 26 degrees C with the compound dissolved in DMSO
T2 sequence (P09884 whole entry): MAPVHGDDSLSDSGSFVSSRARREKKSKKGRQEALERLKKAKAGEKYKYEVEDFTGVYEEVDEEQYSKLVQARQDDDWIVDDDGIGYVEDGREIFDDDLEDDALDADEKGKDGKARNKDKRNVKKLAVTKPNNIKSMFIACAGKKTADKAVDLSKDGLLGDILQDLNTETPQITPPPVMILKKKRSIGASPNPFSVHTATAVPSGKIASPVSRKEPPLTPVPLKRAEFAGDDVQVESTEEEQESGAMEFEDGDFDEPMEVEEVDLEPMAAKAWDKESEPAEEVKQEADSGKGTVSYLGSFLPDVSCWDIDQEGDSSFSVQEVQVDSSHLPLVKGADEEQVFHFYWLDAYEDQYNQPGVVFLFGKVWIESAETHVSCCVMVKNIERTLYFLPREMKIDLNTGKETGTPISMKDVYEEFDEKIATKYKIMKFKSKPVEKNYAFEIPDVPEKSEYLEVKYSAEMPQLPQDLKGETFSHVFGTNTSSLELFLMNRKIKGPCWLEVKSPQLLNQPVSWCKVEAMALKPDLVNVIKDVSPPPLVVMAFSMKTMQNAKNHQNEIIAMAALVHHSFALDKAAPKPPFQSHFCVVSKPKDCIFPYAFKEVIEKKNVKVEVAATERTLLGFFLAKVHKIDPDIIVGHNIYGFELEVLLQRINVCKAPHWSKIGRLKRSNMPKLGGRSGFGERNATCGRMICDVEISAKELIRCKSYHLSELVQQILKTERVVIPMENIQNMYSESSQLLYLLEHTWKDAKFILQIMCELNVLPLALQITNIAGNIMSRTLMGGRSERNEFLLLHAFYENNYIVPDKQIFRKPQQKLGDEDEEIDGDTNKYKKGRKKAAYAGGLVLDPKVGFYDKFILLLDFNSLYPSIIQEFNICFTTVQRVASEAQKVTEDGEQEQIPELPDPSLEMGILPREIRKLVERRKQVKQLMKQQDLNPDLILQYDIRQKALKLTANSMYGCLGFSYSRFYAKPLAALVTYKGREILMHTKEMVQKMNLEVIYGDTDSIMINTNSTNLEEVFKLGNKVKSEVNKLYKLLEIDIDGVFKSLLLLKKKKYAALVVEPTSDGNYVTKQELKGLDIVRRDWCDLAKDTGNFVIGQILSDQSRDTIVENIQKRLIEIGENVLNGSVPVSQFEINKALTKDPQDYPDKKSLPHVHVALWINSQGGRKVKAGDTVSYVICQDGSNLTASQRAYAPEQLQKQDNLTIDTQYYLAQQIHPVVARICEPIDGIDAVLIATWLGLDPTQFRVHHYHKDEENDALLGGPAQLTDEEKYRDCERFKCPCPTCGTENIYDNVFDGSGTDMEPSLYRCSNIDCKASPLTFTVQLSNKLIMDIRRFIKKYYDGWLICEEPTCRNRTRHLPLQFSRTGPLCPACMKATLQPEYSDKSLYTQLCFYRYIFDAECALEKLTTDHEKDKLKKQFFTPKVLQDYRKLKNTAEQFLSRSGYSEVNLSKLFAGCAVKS

[3] = biological target: T3, DNA polymerase catalytic subunit (Human cytomegalovirus (strain AD169) (HHV-5) (Human herpesvirus 5), UniProt P08546); assay: Inhibition of human cytomegalovirus DNA polymerase (95 uL) activity in a solution containing […] HEPES (pH 7.5), incubation for 12 minutes at 26 degrees C; set-up: species or system Human betaherpesvirus 5
T3 sequence (P08546 whole entry): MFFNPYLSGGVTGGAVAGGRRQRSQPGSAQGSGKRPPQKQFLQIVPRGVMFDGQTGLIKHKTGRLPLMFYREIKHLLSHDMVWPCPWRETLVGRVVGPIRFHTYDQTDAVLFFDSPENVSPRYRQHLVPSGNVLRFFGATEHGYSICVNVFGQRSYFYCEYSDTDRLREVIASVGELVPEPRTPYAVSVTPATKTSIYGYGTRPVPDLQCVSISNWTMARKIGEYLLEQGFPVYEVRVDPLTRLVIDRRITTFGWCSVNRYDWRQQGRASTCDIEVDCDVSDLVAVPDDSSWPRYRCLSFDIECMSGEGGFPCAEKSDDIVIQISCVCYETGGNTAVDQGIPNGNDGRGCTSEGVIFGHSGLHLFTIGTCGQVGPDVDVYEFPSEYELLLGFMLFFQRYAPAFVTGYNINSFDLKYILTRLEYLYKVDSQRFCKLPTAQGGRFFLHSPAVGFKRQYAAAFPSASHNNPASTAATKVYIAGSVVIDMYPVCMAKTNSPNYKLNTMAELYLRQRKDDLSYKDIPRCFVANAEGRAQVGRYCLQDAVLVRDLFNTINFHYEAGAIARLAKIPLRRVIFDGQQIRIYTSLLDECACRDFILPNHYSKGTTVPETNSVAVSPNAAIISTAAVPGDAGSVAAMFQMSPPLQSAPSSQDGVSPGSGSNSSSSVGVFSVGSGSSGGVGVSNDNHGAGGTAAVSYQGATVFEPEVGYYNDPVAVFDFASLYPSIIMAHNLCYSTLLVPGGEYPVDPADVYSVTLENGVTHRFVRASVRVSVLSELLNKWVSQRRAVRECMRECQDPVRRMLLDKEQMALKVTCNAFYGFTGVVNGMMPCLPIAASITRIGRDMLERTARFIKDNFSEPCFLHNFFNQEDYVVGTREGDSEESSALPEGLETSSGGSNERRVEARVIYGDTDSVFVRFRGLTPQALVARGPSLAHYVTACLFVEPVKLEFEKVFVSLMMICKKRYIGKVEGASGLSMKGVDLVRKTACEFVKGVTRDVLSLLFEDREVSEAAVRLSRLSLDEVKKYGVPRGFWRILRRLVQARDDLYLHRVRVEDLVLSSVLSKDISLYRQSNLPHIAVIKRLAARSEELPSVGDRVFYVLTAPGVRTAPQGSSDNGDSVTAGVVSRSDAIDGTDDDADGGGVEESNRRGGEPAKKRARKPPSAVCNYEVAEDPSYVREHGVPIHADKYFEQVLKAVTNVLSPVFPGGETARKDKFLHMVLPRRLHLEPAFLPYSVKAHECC

HFF = assay: Antiviral activity against human cytomegalovirus (Davis strain) grown on human foreskin fibroblast cells determined by reduction in plaque formation upon incubation at 37 degrees C with the compound dissolved in DMSO; type: functional, cell-based

| Compound | IC50 [3] | IC50 (HFF) | other results |
| --- | --- | --- | --- |
| O=C(O)P(=O)(O)O [FOSCARNET] |  |  | IC50 [1]: > 20000 nM; IC50 [2]: > 20000 nM |
| Cn1cc(C(=O)NCc2ccc(Cl)cc2)c(=O)c2cc(C#CCCCO)sc21 | 22000 nM |  |  |
| O=C(NCc1ccc(Cl)cc1)c1cn(CCO)c2sc(CCCO)cc2c1=O | 750 nM | 1800 nM |  |
| O=C(NCc1ccc(Cl)cc1)c1cn(CCO)c2sc(C#CCO)cc2c1=O | 1100 nM | 2300 nM |  |
| O=C(NCc1ccc(Cl)cc1)c1cnc2sc(CCCO)cc2c1O |  | > 20000 nM |  |
| Cn1cc(C(=O)NCc2ccc(Cl)cc2)c(=O)c2cc(CCCCO)sc21 | 430 nM |  |  |
| C[C@@]1(CO)[C@H](O)CC[C@@]2(C)[C@H]1CC[C@H]1C[C@@H]3C[C@@]12CC[C@]3(O)CO [APHIDICOLIN] |  |  | IC50 [1]: > 40000 nM |
| O=C(NCc1ccc(Cl)cc1)c1cnc2sc(C#CCO)cc2c1O | 2700 nM | > 20000 nM |  |
| CCn1cc(C(=O)NCc2ccc(Cl)cc2)c(=O)c2cc(C#CCO)sc21 |  | 1700 nM |  |
| CCn1cc(C(=O)NCc2ccc(Cl)cc2)c(=O)c2cc(CCCO)sc21 |  | 2300 nM |  |
| Cn1cc(C(=O)NCc2ccc(Cl)cc2)c(=O)c2cc(C#CCO)sc21 |  | 1400 nM |  |
| CCN(CC)CCn1cc(C(=O)NCc2ccc(Cl)cc2)c(=O)c2cc(CCCO)sc21 |  | 900 nM |  |
| CC(C)n1cc(C(=O)NCc2ccc(Cl)cc2)c(=O)c2cc(C#CCO)sc21 |  | 2700 nM |  |
| Cn1cc(C(=O)NCc2ccc(Cl)cc2)c(=O)c2cc(CCCCCO)sc21 | 9700 nM |  |  |
| Cc1cn([C@H]2C[C@H](N=[N+]=[N-])[C@@H](CO[P@](=O)(O)O[P@](=O)(O)OP(=O)(O)O)O2)c(=O)[nH]c1=O [ZIDOVUDINE TRIPHOSPHATE] |  |  | IC50 [2]: 13400 nM |
| Cn1cc(C(=O)NCc2ccc(Cl)cc2)c(=O)c2cc(C#CCCO)sc21 | 9500 nM |  |  |
| Cn1cc(C(=O)NCc2ccc(Cl)cc2)c(=O)c2cc(CCO)sc21 | 4000 nM |  |  |
| CC(C)n1cc(C(=O)NCc2ccc(Cl)cc2)c(=O)c2cc(CCCO)sc21 |  | 1300 nM |  |
| CCN(CC)CCn1cc(C(=O)NCc2ccc(Cl)cc2)c(=O)c2cc(C#CCO)sc21 | 1800 nM | 3800 nM |  |

Source: ChEMBL document CHEMBL1141075, “4-Oxo-4,7-dihydrothieno[2,3-b]pyridines as non-nucleoside inhibitors of human cytomegalovirus and related herpesvirus polymerases” (J Med Chem, 2005)
